Laboratory results published in ChEMBL document CHEMBL4130544, “Bioactive Asarone-Derived Phenylpropanoids from the Rhizome of Acorus tatarinowii Schott” (J Nat Prod, 2017).
Calls of active or inactive are those of the source. No cut-off for these calls is given here.

System: not listed separately
Assay: Antioxidant activity assessed as AAPH radical scavenging activity at 12.5 uM by ORAC-FL assay
Format: functional
Work on COc1cc([C@H]2Oc3c(OC)cc(CCCO[C@@H]4O[C@H](CO)[C@@H](O)[C@H](O)[C@H]4O)cc3[C@@H]2CO)ccc1O yielded an Activity of 3.17 µMequiv/µM.
O=C(O[C@@H]1Cc2c(O)cc(O)cc2O[C@@H]1c1cc(O)c(O)c(O)c1)c1cc(O)c(O)c(O)c1 gave an Activity of 1.97 µMequiv/µM.
In the case of COc1cc([C@H]2OC[C@H]3[C@@H]2CO[C@@H]3c2ccc(O)c(OC)c2)ccc1O (racemic), the Activity is reported as “Active”.
In the case of COc1cc([C@H]2Oc3c(OC)cc(CCCO)cc3[C@@H]2CO[C@@H]2O[C@H](CO)[C@@H](O)[C@H](O)[C@H]2O)ccc1O, the Activity is reported as “Active”.

System: not listed separately
Assay: Antioxidant activity assessed as DPPH radical scavenging activity at 100 uM incubated for 30 mins under dark condition
Format: functional
For COc1cc([C@H]2Oc3c(OC)cc(CCCO[C@@H]4O[C@H](CO)[C@@H](O)[C@H](O)[C@H]4O)cc3[C@@H]2CO)ccc1O, the Activity was “Active”.
With COc1cc([C@H]2OC[C@H]3[C@@H]2CO[C@@H]3c2ccc(O)c(OC)c2)ccc1O (racemic) the Activity was “Active”.
For COc1cc([C@H]2Oc3c(OC)cc(CCCO)cc3[C@@H]2CO[C@@H]2O[C@H](CO)[C@@H](O)[C@H](O)[C@H]2O)ccc1O, the Activity was “Active”.

Target: T1, Alpha glucosidase (Homo sapiens, UniProt O43451+P10253+P14410+Q2M2H8)
Assay: Inhibition of alpha-glucosidase (unknown origin) at 400 uM using p-NPG as substrate pretreated for 10 mins followed by substrate addition measured after 5 mins
Format: protein assay
With CCO[C@H](c1cc(OC)c(OC)cc1OC)[C@H](C)O the inhibition was “Active”.
In the case of COc1cc([C@H]2Oc3c(OC)cc(CCCO[C@@H]4O[C@H](CO)[C@@H](O)[C@H](O)[C@H]4O)cc3[C@@H]2CO)ccc1O, the inhibition is reported as “Active”.
In the case of COc1cc(OC)c([C@H](OC)[C@H](C)O)cc1OC, the inhibition is reported as “Active”.
With COc1cc(OC)c(C(O)C(C)=O)cc1OC (stereo not drawn) the inhibition was “Active”.
In the case of COc1ccc(CCCO)cc1OC, the inhibition is reported as “Active”.
In the case of COc1cc(OC)c([C@@H](OC)[C@H](C)O)cc1OC, the inhibition is reported as “Active”.
With COc1cc(OC)c(OC)cc1C=O the inhibition was “Active”.
In the case of CCO[C@@H](c1cc(OC)c(OC)cc1OC)[C@H](C)O, the inhibition is reported as “Active”.
For COc1cc(OC)c([C@@H](O)[C@@H](C)O)cc1OC (relative stereo), the inhibition was “Active”.
For COc1cc(OC)c([C@@H]2[C@@H](C)[C@H](c3cc(OC)c(OC)cc3OC)O[C@@H]2C)cc1OC (racemic), the inhibition was “Active”.
With COc1cc(OC)c([C@H](OC)[C@@H](C)O)cc1OC the inhibition was “inactive”.
With COc1cc(OC)c([C@H](O)[C@@H](C)O)cc1OC (relative stereo) the inhibition was “Active”.
With COc1cc(OC)c([C@@H](C)C(OC)OC)cc1OC the inhibition was “Active”.
In the case of COc1cc([C@H]2OC[C@H]3[C@@H]2CO[C@@H]3c2ccc(O)c(OC)c2)ccc1O (racemic), the inhibition is reported as “Active”.
In the case of COc1cc(OC)c([C@@H](OC)[C@@H](C)O)cc1OC, the inhibition is reported as “Active”.
With COc1cc([C@H]2Oc3c(OC)cc(CCCO)cc3[C@@H]2CO[C@@H]2O[C@H](CO)[C@@H](O)[C@H](O)[C@H]2O)ccc1O the inhibition was “Active”.
For CCO[C@@H](c1cc(OC)c(OC)cc1OC)[C@@H](C)O, the inhibition was “Active”.
For COc1cc(OC)c([C@H](C)C(OC)OC)cc1OC, the inhibition was “Active”.
For CCO[C@H](c1cc(OC)c(OC)cc1OC)[C@@H](C)O, the inhibition was “Active”.
With COc1cc(OC)c(C(C)=O)cc1OC the inhibition was “Active”.

Target: T1, Alpha glucosidase
Assay: Inhibition of alpha-glucosidase (unknown origin) using p-NPG as substrate pretreated for 10 mins followed by substrate addition measured after 5 mins
Format: protein assay
Work on COc1cc(OC)c([C@@H](OC)[C@H](C)O)cc1OC yielded an IC50 of 80.6 µM.

Target: Acetylcholinesterase (Homo sapiens) (UniProt P22303)
Sequence (P22303 whole entry): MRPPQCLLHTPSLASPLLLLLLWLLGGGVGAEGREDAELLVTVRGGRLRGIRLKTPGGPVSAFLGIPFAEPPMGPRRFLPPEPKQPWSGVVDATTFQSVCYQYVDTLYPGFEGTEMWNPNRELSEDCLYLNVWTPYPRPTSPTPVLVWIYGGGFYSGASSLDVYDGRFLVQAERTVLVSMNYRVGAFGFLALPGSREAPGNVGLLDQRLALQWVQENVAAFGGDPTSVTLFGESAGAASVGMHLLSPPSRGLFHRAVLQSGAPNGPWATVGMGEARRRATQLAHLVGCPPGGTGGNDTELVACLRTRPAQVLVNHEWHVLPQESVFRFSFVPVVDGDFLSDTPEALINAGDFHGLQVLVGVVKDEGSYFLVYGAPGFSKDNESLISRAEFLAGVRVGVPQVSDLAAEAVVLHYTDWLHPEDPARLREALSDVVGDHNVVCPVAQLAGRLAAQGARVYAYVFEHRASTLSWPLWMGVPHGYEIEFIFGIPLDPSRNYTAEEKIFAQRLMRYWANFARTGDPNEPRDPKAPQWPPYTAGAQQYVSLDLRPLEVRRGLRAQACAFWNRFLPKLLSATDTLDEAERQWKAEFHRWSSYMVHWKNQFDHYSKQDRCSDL
Assay: Inhibition of AChE (unknown origin) at 100 uM using acetylthiocholine iodide as substrate measured after 30 mins by Ellman's method
For CCO[C@H](c1cc(OC)c(OC)cc1OC)[C@H](C)O, the inhibition was “Active”.
In the case of COc1cc([C@H]2Oc3c(OC)cc(CCCO[C@@H]4O[C@H](CO)[C@@H](O)[C@H](O)[C@H]4O)cc3[C@@H]2CO)ccc1O, the inhibition is reported as “Active”.
In the case of COc1cc(OC)c([C@H](OC)[C@H](C)O)cc1OC, the inhibition is reported as “Active”.
For COc1cc(OC)c(C(O)C(C)=O)cc1OC (stereo not drawn), the inhibition was “Active”.
For COc1ccc(CCCO)cc1OC, the inhibition was “Active”.
For COc1cc(OC)c([C@@H](OC)[C@H](C)O)cc1OC, the inhibition was “Active”.
With COc1cc(OC)c(OC)cc1C=O the inhibition was “Active”.
With CCO[C@@H](c1cc(OC)c(OC)cc1OC)[C@H](C)O the inhibition was “Active”.
In the case of COc1cc(OC)c([C@@H](O)[C@@H](C)O)cc1OC (relative stereo), the inhibition is reported as “Active”.
In the case of COc1cc(OC)c([C@@H]2[C@@H](C)[C@H](c3cc(OC)c(OC)cc3OC)O[C@@H]2C)cc1OC (racemic), the inhibition is reported as “Active”.
With COc1cc(OC)c([C@H](OC)[C@@H](C)O)cc1OC the inhibition was “Active”.
For COc1cc(OC)c([C@H](O)[C@@H](C)O)cc1OC (relative stereo), the inhibition was “Active”.
In the case of COc1cc(OC)c([C@@H](C)C(OC)OC)cc1OC, the inhibition is reported as “Active”.
In the case of COc1cc([C@H]2OC[C@H]3[C@@H]2CO[C@@H]3c2ccc(O)c(OC)c2)ccc1O (racemic), the inhibition is reported as “Active”.
For COc1cc(OC)c([C@@H](OC)[C@@H](C)O)cc1OC, the inhibition was “Active”.
In the case of COc1cc([C@H]2Oc3c(OC)cc(CCCO)cc3[C@@H]2CO[C@@H]2O[C@H](CO)[C@@H](O)[C@H](O)[C@H]2O)ccc1O, the inhibition is reported as “Active”.
For CCO[C@@H](c1cc(OC)c(OC)cc1OC)[C@@H](C)O, the inhibition was “Active”.
For COc1cc(OC)c([C@H](C)C(OC)OC)cc1OC, the inhibition was “Active”.
In the case of CCO[C@H](c1cc(OC)c(OC)cc1OC)[C@@H](C)O, the inhibition is reported as “Active”.
With COc1cc(OC)c(C(C)=O)cc1OC the inhibition was “Active”.
